Assay results published in patent US20260007599A1, “TICAGRELOR IV FORMULATIONS FOR USE IN THE TREATMENT OF GRAM-POSITIVE BACTEREMIA” (Hyloris Developments SA, priority 2023, published 2026).

Assays:
[1] = Storage stability of ticagrelor 6 mg/ml in HPβCD 40% w/w at pH 4.5, 5.5, 6.5, 40° C./75% RH, related substances by HPLC; type: physicochemical; conditions: for Acetal impurity, average content / Amine impurity, average content / Impurity at relative retention time 1.52, average content / Oxidative impurity 1, average content / Oxidative impurity 2, average content / Regiomer impurity, average content / Sum impurities >0.05 / Total impurities / Triol Impurity, average content: 40° C./75% RH
Description: HPBCD was dissolved in a buffer solution of pH 4.5, 5.5 or 6.5 prepared separately in water. […] The ticagrelor in buffer solution was filtered through a 0.22 micron filtered and filled in USP Type I glass vials. The vials were stoppered and stored. All precautions were taken during manufacturing, such as N2 purging and avoiding direct exposure to light. The vials were stored at 40° C. and 75% Relative Humidity (RH). To determine the stability of the formulations, batches were evaluated using a related substance method on HPLC. A Gradient HPLC method was used to analyze impurities in formulations using a YMC-Pack Pro C18 column (100×4.6 mm, S-3 μm 12 nm). Good separation was obtained for all the impurities.

[2] = Physical stability and diluent tests of ticagrelor 5 mg/ml batches with varying HPβCD; type: physicochemical; conditions: for Appearance in 5% dextrose / Appearance in NaCl 0.9%: diluted to ticagrelor 0.1 mg/ml; for Appearance, undiluted: ticagrelor 5 mg/ml
Description: 5 mg/ml ticagrelor-cyclodextrin solutions with varying amounts of HPβCD were diluted with normal saline, 5% dextrose solution or Ringer's lactate solution. The stability was screened. The ticagrelor concentration when diluted into dextrose or saline was 0.1 mg/ml.

[3] = tested on: methicillin-resistant Staphylococcus epidermis (MRSE); conditions: ex-vivo; cited from earlier work

CCCSc1nc(N[C@@H]2C[C@H]2c2ccc(F)c(F)c2)c2nnn([C@@H]3C[C@H](OCCO)[C@@H](O)[C@H]3O)c2n1 [ticagrelor, (1S,2S,3R,5S)-3-{7-[(1R,2S)-2-(3,4-difluorophenyl)cyclopropylamino]5-(propylthio)-3H-(1,2,3)triazolo (4,5-D)pyrimidin-3-yl}-5-(2 hydroxyethoxy) cyclopentane-1,2-diol]
0.72%: Total impurities ([1]; pH 6.5, T = 4 weeks)
0.36%: Total impurities ([1]; pH 4.5, T = 0) | Total impurities ([1]; pH 5.5, T = 2 weeks) | Total impurities ([1]; pH 6.5, T = 0)
0.42%: Regiomer impurity, average content ([1]; pH 4.5, T = 4 weeks)
30 microgram/ml: minimal bactericidal concentration [3]
0.21%: Sum impurities >0.05 ([1]; pH 5.5, T = 2 weeks)
0.41%: Total impurities ([1]; pH 6.5, T = 2 weeks)
0.65%: Total impurities ([1]; pH 5.5, T = 4 weeks)
0.22%: Sum impurities >0.05 ([1]; pH 4.5, T = 0) | Sum impurities >0.05 ([1]; pH 6.5, T = 0)
0.23%: Sum impurities >0.05 ([1]; pH 4.5, T = 2 weeks) | Sum impurities >0.05 ([1]; pH 6.5, T = 2 weeks)
Clear solution: Appearance in 5% dextrose ([2]; HPβCD 22.5% w/w) | Appearance in 5% dextrose ([2]; HPβCD 25.0% w/w) | Appearance in 5% dextrose ([2]; HPβCD 27.5% w/w) | Appearance in 5% dextrose ([2]; HPβCD 30.0% w/w) | Appearance in 5% dextrose ([2]; HPβCD 32.5% w/w) | Appearance in NaCl 0.9% ([2]; HPβCD 32.5% w/w) | Appearance, undiluted ([2]; HPβCD 30.0% w/w) | Appearance, undiluted ([2]; HPβCD 32.5% w/w)
0.01%: Oxidative impurity 1, average content ([1]; pH 4.5, T = 4 weeks) | Oxidative impurity 1, average content ([1]; pH 5.5, T = 4 weeks)
0.05%: Acetal impurity, average content ([1]; pH 4.5, T = 0) | Amine impurity, average content ([1]; pH 4.5, T = 0) | Triol Impurity, average content ([1]; pH 4.5, T = 0) | Amine impurity, average content ([1]; pH 4.5, T = 2 weeks) | Triol Impurity, average content ([1]; pH 4.5, T = 2 weeks) | Acetal impurity, average content ([1]; pH 4.5, T = 4 weeks) | Amine impurity, average content ([1]; pH 4.5, T = 4 weeks) | Triol Impurity, average content ([1]; pH 4.5, T = 4 weeks) | Acetal impurity, average content ([1]; pH 5.5, T = 0) | Triol Impurity, average content ([1]; pH 5.5, T = 0) | Acetal impurity, average content ([1]; pH 5.5, T = 2 weeks) | Amine impurity, average content ([1]; pH 5.5, T = 2 weeks) | Triol Impurity, average content ([1]; pH 5.5, T = 2 weeks) | Acetal impurity, average content ([1]; pH 5.5, T = 4 weeks) | Triol Impurity, average content ([1]; pH 5.5, T = 4 weeks) | Amine impurity, average content ([1]; pH 6.5, T = 0) | Amine impurity, average content ([1]; pH 6.5, T = 2 weeks) | Amine impurity, average content ([1]; pH 6.5, T = 4 weeks) | Triol Impurity, average content ([1]; pH 6.5, T = 4 weeks)
0.30%: Regiomer impurity, average content ([1]; pH 5.5, T = 4 weeks)
Turbid: Appearance in NaCl 0.9% ([2]; HPβCD 22.5% w/w) | Appearance in NaCl 0.9% ([2]; HPβCD 25.0% w/w) | Appearance in NaCl 0.9% ([2]; HPβCD 27.5% w/w) | Appearance in NaCl 0.9% ([2]; HPβCD 30.0% w/w)
0.80%: Total impurities ([1]; pH 4.5, T = 4 weeks)
0.03%: Impurity at relative retention time 1.52, average content ([1]; pH 4.5, T = 0) | Impurity at relative retention time 1.52, average content ([1]; pH 4.5, T = 4 weeks) | Impurity at relative retention time 1.52, average content ([1]; pH 5.5, T = 2 weeks) | Impurity at relative retention time 1.52, average content ([1]; pH 6.5, T = 0) | Impurity at relative retention time 1.52, average content ([1]; pH 6.5, T = 4 weeks)
0.04%: Impurity at relative retention time 1.52, average content ([1]; pH 4.5, T = 2 weeks) | Amine impurity, average content ([1]; pH 5.5, T = 0) | Amine impurity, average content ([1]; pH 5.5, T = 4 weeks) | Impurity at relative retention time 1.52, average content ([1]; pH 6.5, T = 2 weeks) | Oxidative impurity 2, average content ([1]; pH 6.5, T = 4 weeks)
~0.3%: regiomer impurity level ([1]; 4 weeks 40° C. and 75% RH, specification limit 0.3%)
0.16%: Sum impurities >0.05 ([1]; pH 5.5, T = 0)
0.06%: Acetal impurity, average content ([1]; pH 4.5, T = 2 weeks) | Acetal impurity, average content ([1]; pH 6.5, T = 0) | Triol Impurity, average content ([1]; pH 6.5, T = 0) | Acetal impurity, average content ([1]; pH 6.5, T = 2 weeks) | Triol Impurity, average content ([1]; pH 6.5, T = 2 weeks) | Acetal impurity, average content ([1]; pH 6.5, T = 4 weeks)
0.56%: Sum impurities >0.05 ([1]; pH 6.5, T = 4 weeks)
0.45%: Sum impurities >0.05 ([1]; pH 5.5, T = 4 weeks)
0.02%: Oxidative impurity 2, average content ([1]; pH 4.5, T = 4 weeks) | Impurity at relative retention time 1.52, average content ([1]; pH 5.5, T = 0) | Impurity at relative retention time 1.52, average content ([1]; pH 5.5, T = 4 weeks) | Oxidative impurity 2, average content ([1]; pH 5.5, T = 4 weeks)
5 to 15 mg/mL: ticagrelor concentration that could be dissolved ([2]; HPβCD 20-40% w/w, without the use of heat)
0.63%: Sum impurities >0.05 ([1]; pH 4.5, T = 4 weeks)
0.40%: Total impurities ([1]; pH 4.5, T = 2 weeks)
0.35%: Regiomer impurity, average content ([1]; pH 6.5, T = 4 weeks)
remained stable: stability of undiluted concentrate ([2]; in the refrigerator, HPβCD concentration as low as 22.5% w/w)
0.33%: Total impurities ([1]; pH 5.5, T = 0)
0.00%: Oxidative impurity 1, average content ([1]; pH 4.5, T = 0) | Oxidative impurity 2, average content ([1]; pH 4.5, T = 0) | Regiomer impurity, average content ([1]; pH 4.5, T = 0) | Oxidative impurity 1, average content ([1]; pH 4.5, T = 2 weeks) | Oxidative impurity 2, average content ([1]; pH 4.5, T = 2 weeks) | Regiomer impurity, average content ([1]; pH 4.5, T = 2 weeks) | Oxidative impurity 1, average content ([1]; pH 5.5, T = 0) | Oxidative impurity 2, average content ([1]; pH 5.5, T = 0) | Regiomer impurity, average content ([1]; pH 5.5, T = 0) | Oxidative impurity 1, average content ([1]; pH 5.5, T = 2 weeks) | Oxidative impurity 2, average content ([1]; pH 5.5, T = 2 weeks) | Regiomer impurity, average content ([1]; pH 5.5, T = 2 weeks) | Oxidative impurity 1, average content ([1]; pH 6.5, T = 0) | Oxidative impurity 2, average content ([1]; pH 6.5, T = 0) | Regiomer impurity, average content ([1]; pH 6.5, T = 0) | Oxidative impurity 1, average content ([1]; pH 6.5, T = 2 weeks) | Oxidative impurity 2, average content ([1]; pH 6.5, T = 2 weeks) | Regiomer impurity, average content ([1]; pH 6.5, T = 2 weeks) | Oxidative impurity 1, average content ([1]; pH 6.5, T = 4 weeks)
